± gives the expanded uncertainty stated by the source.
Experiment: xn = mol fraction of the nth substance listed
Settings: 100.7 kPa, Liquid; for viscosity: Falling or rolling sphere viscometry; for speed of sound: Frequency=3 MHz, Sing-around technique in a fixed-path interferometer; for mass density: Vibrating tube method

## CCCC=O [butanal] + CCCC[n+]1ccn(C)c1.O=S(=O)([N-]S(=O)(=O)C(F)(F)F)C(F)(F)F
298.15 K, x2 = 0
  viscosity: 0.43 ± 0.03 mPa·s
  speed of sound: 1193.8 ± 1.4 m/s
  mass density: 796.99 ± 0.21 kg/m3
298.15 K, x2 = 0.1056
  viscosity: 1.53 ± 0.09 mPa·s
  speed of sound: 1187.5 ± 1.4 m/s
  mass density: 979.73 ± 0.46 kg/m3
298.15 K, x2 = 0.2135
  viscosity: 3.32 ± 0.2 mPa·s
  speed of sound: 1191.7 ± 1.4 m/s
  mass density: 1105.53 ± 0.33 kg/m3
298.15 K, x2 = 0.3088
  viscosity: 5.62 ± 0.34 mPa·s
  speed of sound: 1196.2 ± 1.4 m/s
  mass density: 1185.23 ± 0.32 kg/m3
298.15 K, x2 = 0.4153
  viscosity: 8.98 ± 0.55 mPa·s
  speed of sound: 1200.5 ± 1.4 m/s
  mass density: 1251.86 ± 0.36 kg/m3
298.15 K, x2 = 0.5025
  viscosity: 12.42 ± 0.75 mPa·s
  speed of sound: 1204.2 ± 1.5 m/s
  mass density: 1294.27 ± 0.4 kg/m3
298.15 K, x2 = 0.5987
  viscosity: 16.22 ± 0.99 mPa·s
  speed of sound: 1208.6 ± 1.5 m/s
  mass density: 1332.31 ± 0.44 kg/m3
298.15 K, x2 = 0.6852
  viscosity: 20.37 ± 1.2 mPa·s
  speed of sound: 1213.2 ± 1.5 m/s
  mass density: 1360.82 ± 0.48 kg/m3
298.15 K, x2 = 0.7729
  viscosity: 25.55 ± 1.6 mPa·s
  speed of sound: 1217.5 ± 1.5 m/s
  mass density: 1385.61 ± 0.52 kg/m3
298.15 K, x2 = 0.8852
  viscosity: 34.29 ± 2.1 mPa·s
  speed of sound: 1223.9 ± 1.5 m/s
  mass density: 1412.72 ± 0.57 kg/m3
298.15 K, x2 = 0.0222
  speed of sound: 1192 ± 1.4 m/s
298.15 K, x2 = 0.0464
  speed of sound: 1190.7 ± 1.4 m/s
298.15 K, x2 = 0.0748
  speed of sound: 1189.2 ± 1.4 m/s
303.15 K, x2 = 0
  viscosity: 0.4 ± 0.02 mPa·s
  speed of sound: 1172.7 ± 1.4 m/s
  mass density: 791.8 ± 0.21 kg/m3
303.15 K, x2 = 0.1056
  viscosity: 1.24 ± 0.08 mPa·s
  speed of sound: 1169 ± 1.4 m/s
  mass density: 975.4 ± 0.34 kg/m3
303.15 K, x2 = 0.2135
  viscosity: 2.62 ± 0.16 mPa·s
  speed of sound: 1173.6 ± 1.4 m/s
  mass density: 1101.73 ± 0.31 kg/m3
303.15 K, x2 = 0.3088
  viscosity: 4.29 ± 0.26 mPa·s
  speed of sound: 1179.9 ± 1.4 m/s
  mass density: 1181.18 ± 0.32 kg/m3
303.15 K, x2 = 0.4153
  viscosity: 6.76 ± 0.41 mPa·s
  speed of sound: 1185.4 ± 1.4 m/s
  mass density: 1247.94 ± 0.36 kg/m3
303.15 K, x2 = 0.5025
  viscosity: 9.23 ± 0.56 mPa·s
  speed of sound: 1189.5 ± 1.5 m/s
  mass density: 1290.44 ± 0.4 kg/m3
303.15 K, x2 = 0.5987
  viscosity: 12.08 ± 0.74 mPa·s
  speed of sound: 1195.7 ± 1.5 m/s
  mass density: 1328.49 ± 0.44 kg/m3
303.15 K, x2 = 0.6852
  viscosity: 15.05 ± 0.92 mPa·s
  speed of sound: 1200.6 ± 1.5 m/s
  mass density: 1356.74 ± 0.48 kg/m3
303.15 K, x2 = 0.7729
  viscosity: 19.07 ± 1.2 mPa·s
  speed of sound: 1206.6 ± 1.5 m/s
  mass density: 1381.37 ± 0.52 kg/m3
303.15 K, x2 = 0.8852
  viscosity: 26.85 ± 1.6 mPa·s
  speed of sound: 1213.6 ± 1.5 m/s
  mass density: 1408.37 ± 0.56 kg/m3
303.15 K, x2 = 0.0222
  speed of sound: 1171.6 ± 1.4 m/s
303.15 K, x2 = 0.0464
  speed of sound: 1170.9 ± 1.4 m/s
303.15 K, x2 = 0.0748
  speed of sound: 1170 ± 1.4 m/s
308.15 K, x2 = 0
  viscosity: 0.39 ± 0.02 mPa·s
  speed of sound: 1151.6 ± 1.4 m/s
  mass density: 786.41 ± 0.21 kg/m3
308.15 K, x2 = 0.1056
  viscosity: 0.98 ± 0.06 mPa·s
  speed of sound: 1149.6 ± 1.4 m/s
  mass density: 971.06 ± 0.34 kg/m3
308.15 K, x2 = 0.2135
  viscosity: 1.98 ± 0.12 mPa·s
  speed of sound: 1154.8 ± 1.4 m/s
  mass density: 1097.08 ± 0.31 kg/m3
308.15 K, x2 = 0.3088
  viscosity: 3.18 ± 0.19 mPa·s
  speed of sound: 1161.6 ± 1.4 m/s
  mass density: 1176.97 ± 0.32 kg/m3
308.15 K, x2 = 0.4153
  viscosity: 4.87 ± 0.3 mPa·s
  speed of sound: 1168.7 ± 1.4 m/s
  mass density: 1243.96 ± 0.36 kg/m3
308.15 K, x2 = 0.5025
  viscosity: 6.66 ± 0.41 mPa·s
  speed of sound: 1174.3 ± 1.5 m/s
  mass density: 1286.66 ± 0.4 kg/m3
308.15 K, x2 = 0.5987
  viscosity: 8.73 ± 0.53 mPa·s
  speed of sound: 1180.5 ± 1.5 m/s
  mass density: 1324.67 ± 0.44 kg/m3
308.15 K, x2 = 0.6852
  viscosity: 10.93 ± 0.67 mPa·s
  speed of sound: 1186.4 ± 1.5 m/s
  mass density: 1352.96 ± 0.48 kg/m3
308.15 K, x2 = 0.7729
  viscosity: 14.71 ± 0.89 mPa·s
  speed of sound: 1193.6 ± 1.5 m/s
  mass density: 1377.44 ± 0.51 kg/m3
308.15 K, x2 = 0.8852
  viscosity: 21.85 ± 1.3 mPa·s
  speed of sound: 1201 ± 1.5 m/s
  mass density: 1404.09 ± 0.56 kg/m3
308.15 K, x2 = 0.0222
  speed of sound: 1150.1 ± 1.4 m/s
308.15 K, x2 = 0.0464
  speed of sound: 1149.4 ± 1.4 m/s
308.15 K, x2 = 0.0748
  speed of sound: 1148.8 ± 1.4 m/s
313.15 K, x2 = 0
  viscosity: 0.36 ± 0.02 mPa·s
  speed of sound: 1130.6 ± 1.4 m/s
  mass density: 781.37 ± 0.21 kg/m3
313.15 K, x2 = 0.1056
  viscosity: 0.8 ± 0.05 mPa·s
  speed of sound: 1129.2 ± 1.4 m/s
  mass density: 966.81 ± 0.35 kg/m3
313.15 K, x2 = 0.2135
  viscosity: 1.53 ± 0.09 mPa·s
  speed of sound: 1136.5 ± 1.4 m/s
  mass density: 1092.97 ± 0.31 kg/m3
313.15 K, x2 = 0.3088
  viscosity: 2.39 ± 0.15 mPa·s
  speed of sound: 1144.7 ± 1.4 m/s
  mass density: 1173.06 ± 0.32 kg/m3
313.15 K, x2 = 0.4153
  viscosity: 3.69 ± 0.22 mPa·s
  speed of sound: 1152.6 ± 1.4 m/s
  mass density: 1240.28 ± 0.36 kg/m3
313.15 K, x2 = 0.5025
  viscosity: 5.13 ± 0.31 mPa·s
  speed of sound: 1159.6 ± 1.4 m/s
  mass density: 1282.97 ± 0.39 kg/m3
313.15 K, x2 = 0.5987
  viscosity: 6.82 ± 0.41 mPa·s
  speed of sound: 1166.8 ± 1.5 m/s
  mass density: 1320.95 ± 0.43 kg/m3
313.15 K, x2 = 0.6852
  viscosity: 8.86 ± 0.54 mPa·s
  speed of sound: 1174.2 ± 1.5 m/s
  mass density: 1349.19 ± 0.47 kg/m3
313.15 K, x2 = 0.7729
  viscosity: 11.8 ± 0.72 mPa·s
  speed of sound: 1181.8 ± 1.5 m/s
  mass density: 1373.41 ± 0.51 kg/m3
313.15 K, x2 = 0.8852
  viscosity: 17.93 ± 1.1 mPa·s
  speed of sound: 1189.6 ± 1.5 m/s
  mass density: 1399.8 ± 0.56 kg/m3
313.15 K, x2 = 0.0222
  speed of sound: 1129.3 ± 1.4 m/s
313.15 K, x2 = 0.0464
  speed of sound: 1128.5 ± 1.4 m/s
313.15 K, x2 = 0.0748
  speed of sound: 1127.9 ± 1.4 m/s
318.15 K, x2 = 0
  viscosity: 0.35 ± 0.02 mPa·s
  speed of sound: 1109.6 ± 1.4 m/s
  mass density: 776.39 ± 0.21 kg/m3
318.15 K, x2 = 0.1056
  viscosity: 0.69 ± 0.04 mPa·s
  speed of sound: 1109 ± 1.4 m/s
  mass density: 961.43 ± 0.35 kg/m3
318.15 K, x2 = 0.2135
  viscosity: 1.23 ± 0.07 mPa·s
  speed of sound: 1118.4 ± 1.4 m/s
  mass density: 1088.71 ± 0.31 kg/m3
318.15 K, x2 = 0.3088
  viscosity: 1.96 ± 0.12 mPa·s
  speed of sound: 1128.2 ± 1.4 m/s
  mass density: 1169.26 ± 0.31 kg/m3
318.15 K, x2 = 0.4153
  viscosity: 2.96 ± 0.18 mPa·s
  speed of sound: 1137.7 ± 1.4 m/s
  mass density: 1236.78 ± 0.36 kg/m3
318.15 K, x2 = 0.5025
  viscosity: 4.06 ± 0.25 mPa·s
  speed of sound: 1145.2 ± 1.5 m/s
  mass density: 1279.56 ± 0.39 kg/m3
318.15 K, x2 = 0.5987
  viscosity: 5.62 ± 0.34 mPa·s
  speed of sound: 1153.1 ± 1.5 m/s
  mass density: 1317.62 ± 0.43 kg/m3
318.15 K, x2 = 0.6852
  viscosity: 7.72 ± 0.47 mPa·s
  speed of sound: 1162.1 ± 1.5 m/s
  mass density: 1345.51 ± 0.47 kg/m3
318.15 K, x2 = 0.7729
  viscosity: 10.43 ± 0.63 mPa·s
  speed of sound: 1170.1 ± 1.5 m/s
  mass density: 1369.39 ± 0.51 kg/m3
318.15 K, x2 = 0.8852
  viscosity: 15.49 ± 0.94 mPa·s
  speed of sound: 1179.3 ± 1.5 m/s
  mass density: 1395.55 ± 0.55 kg/m3
318.15 K, x2 = 0.0222
  speed of sound: 1108.4 ± 1.4 m/s
318.15 K, x2 = 0.0464
  speed of sound: 1107.7 ± 1.4 m/s
318.15 K, x2 = 0.0748
  speed of sound: 1107 ± 1.4 m/s
323.15 K, x2 = 0
  viscosity: 0.32 ± 0.02 mPa·s
  speed of sound: 1088.8 ± 1.4 m/s
  mass density: 771.3 ± 0.22 kg/m3
323.15 K, x2 = 0.1056
  viscosity: 0.56 ± 0.03 mPa·s
  speed of sound: 1087.8 ± 1.4 m/s
  mass density: 957.54 ± 0.6 kg/m3
323.15 K, x2 = 0.2135
  viscosity: 0.94 ± 0.06 mPa·s
  speed of sound: 1099.2 ± 1.4 m/s
  mass density: 1084.6 ± 0.42 kg/m3
323.15 K, x2 = 0.3088
  viscosity: 1.43 ± 0.09 mPa·s
  speed of sound: 1110.2 ± 1.4 m/s
  mass density: 1165.17 ± 0.37 kg/m3
323.15 K, x2 = 0.4153
  viscosity: 2.24 ± 0.14 mPa·s
  speed of sound: 1120.3 ± 1.4 m/s
  mass density: 1232.87 ± 0.39 kg/m3
323.15 K, x2 = 0.5025
  viscosity: 3.07 ± 0.19 mPa·s
  speed of sound: 1128.5 ± 1.5 m/s
  mass density: 1275.6 ± 0.41 kg/m3
323.15 K, x2 = 0.5987
  viscosity: 4.43 ± 0.27 mPa·s
  speed of sound: 1138.5 ± 1.5 m/s
  mass density: 1313.47 ± 0.44 kg/m3
323.15 K, x2 = 0.6852
  viscosity: 6.21 ± 0.38 mPa·s
  speed of sound: 1147.2 ± 1.5 m/s
  mass density: 1341.63 ± 0.47 kg/m3
323.15 K, x2 = 0.7729
  viscosity: 8.42 ± 0.51 mPa·s
  speed of sound: 1156.5 ± 1.5 m/s
  mass density: 1365.48 ± 0.51 kg/m3
323.15 K, x2 = 0.8852
  viscosity: 12.99 ± 0.79 mPa·s
  speed of sound: 1166.2 ± 1.5 m/s
  mass density: 1391.08 ± 0.55 kg/m3
323.15 K, x2 = 0.0222
  speed of sound: 1087.5 ± 1.4 m/s
323.15 K, x2 = 0.0464
  speed of sound: 1086.7 ± 1.4 m/s
323.15 K, x2 = 0.0748
  speed of sound: 1086.1 ± 1.4 m/s
